Measurements reported in patent US11466006B2, “Dual selective PI3 delta and gamma kinase inhibitors” (Rhizen Pharmaceuticals SA, priority 2013, dated 2022).

Key:
[1] = tested on: pAKT; assay: Inhibition of AKT phosphorylation in leukemic cell lines (Western blot); format: cell-based; settings: MOLT-4, Jurkat, CCRF-CEM, Hut-78 & HuT-102; 48 h; read-out: EC50, reduction in pAKT expression
Protocol: MOLT-4, Jurkat, CCRF-CEM, Hut-78, HuT-102, Sez4 and HH cells were incubated with desired concentrations of compound for 48 h. Cells were lysed and pAKT determined by Western Blotting. Bands were quantified using ImageJ and normalized to actin.

[2] = tested on: Female Wistar rats; assay: Lipopolysaccharide induced pulmonary neutrophilia in female Wistar rat model; format: in vivo; settings: Neutrophil, oral gavage, 1 h before intratracheal LPS, BAL at 6 h, read-out: ED50, reduction of neutrophil infiltration into the lungs
Protocol: After the quarantine period, fasted animals were randomized and divided into various groups depending on their body weights. The test compound [Compound A1] was prepared as a suspension in a vehicle consisting of 0.5% methylcellulose in which Tween 80 as a suspending agent. The compound or vehicle was administered by oral gavage in a volume of 10 mL/kg. Female Wistar rats were anaesthetized with ketamine and LPS solution was administered intratracheally one hour after compound administration at a dose of 1 mg/kg. 6 h after LPS instillation, animals were exsanguinated under anaesthesia, and then trachea was cannulated and the lungs were lavaged with 5-ml aliquots of heparinised PBS (1 unit/ml) four times through tracheal cannula (total volume 20 ml). Bronchoalveolar lavage (BAL) fluid was been stored at 2-8° C. until assayed for total cell and differential leukocyte count. Bronchioalveolar fluid was centrifuged (500×g for 10 min) and the resulting cell pellet was resuspended in 0.5 ml of heparinised saline. The total numbers of white blood cells were determined in BAL fluid or blood by using a blood cell counter and was adjusted to 1×10^6 cell/ml. Differential cell count was calculated manually. […] The number of each cell type among 300 white blood cells in the cell smear was determined and expressed as a percentage. The number of eosinophil in each BALf or blood was calculated.

[3] = target: T1, PI3K beta (Mus musculus, UniProt Q8BTI9); assay: LPA induced AktS473 phosphorylation in 3T3 fibroblasts (PI3Kβ selectivity); format: cell-based; settings: read-out: Cellular IC50 PI3K beta (LPA induced pAKT in 3T3 fibroblasts)
T1 construct: 3T3 cells were treated with desired concentrations of the test compound for 15 min; endogenous in cells; host or cells: 3T3 fibroblasts

[4] = target: PI3Kδ (Homo sapiens, UniProt O00329); assay: Anti-FcεR1 induced CD63 expression in basophils from human whole blood; format: cell-based; parameters: Add 49 μl of patient's whole blood to each tube; endogenous in cells; host or cells: basophils in human whole blood; settings: n=10, read-out: EC50 for FcεR1 (PI3K δ), CD63 positive basophils
Protocol: PI3K δ and γ signalling in basophils manifested by an alteration of anti-FcεR1 or fMLP induced CD63 expression is a useful pharmacodynamic marker determined using the Flow2CAST® kit (Buhlmann Laboratories, Switzerland). Briefly, it involves the following steps: • Mix the anti-coagulated blood sample by inverting the venipuncture tube several times; • Prepare fresh and pyrogen-free 3.5 ml polypropylene or polystyrene tubes suitable for Flow Cytometry measurements; • Add 49 μl of patient's whole blood to each tube; • Add 1 μl of 10% DMSO (background) or compound (10% DMSO) to the assigned tubes and mix gently. Incubate at room temperature for 15 minutes; • Pipet 50 μl of the Stimulation buffer (background) or anti-FcεRI Ab or or fMLP to each tube; • Add 100 μl of Stimulation Buffer to each tube; • Mix gently. Add 20 μl Staining Reagent (1:1 mix of FITC-CD63 and PE-CCR3) to each tube; • Mix gently, cover the tubes and incubate for 15 minutes at 37° C. in a water bath. […]
Percent CD63 positive cells within the gated basophil population were determined in different treatment groups and normalized to vehicle control.

[5] = target: T2, PI3K delta (Homo sapiens, UniProt O00329); assay: Anti-IgM induced B-cell proliferation (PI3Kδ selectivity); format: cell-based; settings: read-out: Cellular IC50 PI3K delta (anti-IgM induced human B-cell proliferation)
T2 construct: Isolated B-cells were re-suspended to 1.0×10^6 cells per ml; endogenous in cells; host or cells: isolated human B cells
Protocol: The objective of this study was to assess the inhibitory potential of Compound A1 on anti-IgM induced human B-cell proliferation.
• Isolated B-cells were re-suspended to 1.0×10^6 cells per ml. 100 μl of cell suspension was added to each well of a 96-well plate. Triplicates were maintained. • 50 μl of drug dilution was added and mixed well. A DMSO blank and inducer blank were maintained. • Treated plate was incubated for 30 min at 37° C., 5% CO2 and then 50 μl of 4× inducer was added and mixed by pipetting. • Plate was incubated at 37° C., 5% CO2 for 72 h. • Media was aspirated and 150 μl of DMSO was added to dissolve the formazan crystals. • Absorbance was read at A560 and A640 nm.

[6] = target: T3, PI3K gamma (Mus musculus, UniProt Q9JHG7); assay: c5a induced AktS473 phosphorylation in RAW 264.7 macrophages (PI3Kγ selectivity); format: cell-based; settings: read-out: Cellular IC50 PI3K gamma (c5a induced pAKT in RAW macrophages)
T3 construct: endogenous in cells; host or cells: RAW 264.7 macrophages
Protocol: The objective of this study was to determine the effect of Compound A1 on PI3Kγ kinase mediated c5a induced AktS473 phosphorylation in RAW 264.7 macrophages. • RAW 264.7 cells were treated with desired concentrations of the test compound for 15 min. 1 ml of 2× c5a was added such that the final concentration was 50 ng/ml and incubated for 15 min. • Media was discarded and washed with 1 ml of ice-cold 1× PBS. • 250 μl of cell lysis buffer was added and incubated on ice for 30 min. • Samples were centrifuged and supernatant was stored at −80° C. until analysis • Samples were analyzed by Western Blotting using pAKT (S473) as the primary and anti-rabbit IgG-HRP as a secondary antibody. • Intensity of the bands was determined using ImageJ 1.42q (NIH, USA) and normalized to Actin (loading control). Data was plotted using GraphPad Prism (Version 5.02).

T1 sequence (Q8BTI9 whole entry): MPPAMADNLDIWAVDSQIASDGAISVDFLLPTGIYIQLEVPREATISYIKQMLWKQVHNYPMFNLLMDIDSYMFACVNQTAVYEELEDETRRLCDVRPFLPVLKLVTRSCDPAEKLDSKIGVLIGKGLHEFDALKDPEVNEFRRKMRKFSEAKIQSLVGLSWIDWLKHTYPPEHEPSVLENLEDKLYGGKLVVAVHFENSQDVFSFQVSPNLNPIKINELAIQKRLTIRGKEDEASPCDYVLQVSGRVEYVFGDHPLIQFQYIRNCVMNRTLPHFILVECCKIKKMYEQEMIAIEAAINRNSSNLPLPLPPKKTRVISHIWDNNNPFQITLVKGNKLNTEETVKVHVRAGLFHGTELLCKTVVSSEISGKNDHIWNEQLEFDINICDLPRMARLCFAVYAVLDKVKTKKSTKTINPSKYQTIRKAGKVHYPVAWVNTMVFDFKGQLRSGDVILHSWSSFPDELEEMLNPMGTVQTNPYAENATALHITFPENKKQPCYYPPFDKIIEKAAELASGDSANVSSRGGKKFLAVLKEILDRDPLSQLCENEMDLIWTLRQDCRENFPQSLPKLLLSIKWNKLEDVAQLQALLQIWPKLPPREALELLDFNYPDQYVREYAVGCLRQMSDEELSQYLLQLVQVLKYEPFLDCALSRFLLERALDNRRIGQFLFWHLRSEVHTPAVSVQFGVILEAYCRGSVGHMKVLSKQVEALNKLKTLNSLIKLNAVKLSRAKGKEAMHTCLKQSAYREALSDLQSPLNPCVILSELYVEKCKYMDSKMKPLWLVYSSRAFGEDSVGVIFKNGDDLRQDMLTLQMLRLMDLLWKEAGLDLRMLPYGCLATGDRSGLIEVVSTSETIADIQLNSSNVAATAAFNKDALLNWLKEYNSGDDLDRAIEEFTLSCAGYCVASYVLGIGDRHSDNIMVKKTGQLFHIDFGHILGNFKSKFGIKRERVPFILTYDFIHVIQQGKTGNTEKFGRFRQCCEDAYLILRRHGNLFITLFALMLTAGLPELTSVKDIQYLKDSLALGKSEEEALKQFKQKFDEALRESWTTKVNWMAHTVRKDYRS
T1 sequence (P26450 whole entry partner): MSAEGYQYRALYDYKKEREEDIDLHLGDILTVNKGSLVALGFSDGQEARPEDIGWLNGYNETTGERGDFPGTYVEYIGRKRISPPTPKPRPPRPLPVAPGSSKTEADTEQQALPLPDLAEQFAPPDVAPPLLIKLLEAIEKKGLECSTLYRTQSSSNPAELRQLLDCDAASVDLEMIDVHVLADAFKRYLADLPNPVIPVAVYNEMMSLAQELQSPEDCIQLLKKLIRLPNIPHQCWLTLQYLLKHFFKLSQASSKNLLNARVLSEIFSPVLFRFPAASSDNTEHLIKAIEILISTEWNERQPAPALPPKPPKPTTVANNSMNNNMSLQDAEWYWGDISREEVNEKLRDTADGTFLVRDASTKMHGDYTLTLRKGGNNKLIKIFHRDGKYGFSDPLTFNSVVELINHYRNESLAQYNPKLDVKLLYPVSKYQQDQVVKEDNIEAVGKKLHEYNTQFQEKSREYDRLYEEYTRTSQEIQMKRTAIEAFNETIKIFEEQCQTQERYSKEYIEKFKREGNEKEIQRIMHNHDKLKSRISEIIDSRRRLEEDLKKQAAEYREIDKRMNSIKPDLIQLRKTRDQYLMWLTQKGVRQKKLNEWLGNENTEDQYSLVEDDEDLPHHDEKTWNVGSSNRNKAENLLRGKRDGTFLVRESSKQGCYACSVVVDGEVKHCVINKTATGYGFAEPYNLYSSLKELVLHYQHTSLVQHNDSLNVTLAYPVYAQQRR
PI3Kδ, sequence (O00329 whole entry): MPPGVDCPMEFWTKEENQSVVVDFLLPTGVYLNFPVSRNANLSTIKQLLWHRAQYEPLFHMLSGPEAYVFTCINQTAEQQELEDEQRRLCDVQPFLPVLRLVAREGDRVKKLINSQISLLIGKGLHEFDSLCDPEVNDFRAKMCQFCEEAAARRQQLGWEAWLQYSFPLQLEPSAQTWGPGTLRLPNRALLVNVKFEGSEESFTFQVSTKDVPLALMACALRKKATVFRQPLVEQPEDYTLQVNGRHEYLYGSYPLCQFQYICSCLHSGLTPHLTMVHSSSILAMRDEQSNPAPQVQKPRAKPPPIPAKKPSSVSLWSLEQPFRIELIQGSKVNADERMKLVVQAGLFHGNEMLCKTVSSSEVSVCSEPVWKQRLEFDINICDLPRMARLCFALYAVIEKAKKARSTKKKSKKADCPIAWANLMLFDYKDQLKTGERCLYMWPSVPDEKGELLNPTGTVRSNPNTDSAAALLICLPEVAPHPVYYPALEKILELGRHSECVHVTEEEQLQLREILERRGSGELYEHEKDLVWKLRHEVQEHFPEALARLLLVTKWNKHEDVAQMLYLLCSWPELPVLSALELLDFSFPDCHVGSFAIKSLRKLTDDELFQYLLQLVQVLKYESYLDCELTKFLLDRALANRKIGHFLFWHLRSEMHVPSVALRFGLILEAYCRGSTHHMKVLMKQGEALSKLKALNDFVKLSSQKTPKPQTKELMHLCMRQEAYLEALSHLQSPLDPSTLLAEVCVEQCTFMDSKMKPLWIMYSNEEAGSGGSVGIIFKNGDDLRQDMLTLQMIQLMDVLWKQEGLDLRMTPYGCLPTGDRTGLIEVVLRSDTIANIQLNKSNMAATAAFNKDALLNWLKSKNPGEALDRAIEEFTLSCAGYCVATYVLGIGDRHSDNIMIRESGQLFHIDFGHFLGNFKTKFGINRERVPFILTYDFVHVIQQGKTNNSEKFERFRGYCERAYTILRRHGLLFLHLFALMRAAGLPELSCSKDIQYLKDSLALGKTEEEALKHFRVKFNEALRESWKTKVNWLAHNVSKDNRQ
PI3Kδ, sequence (P27986 whole entry partner): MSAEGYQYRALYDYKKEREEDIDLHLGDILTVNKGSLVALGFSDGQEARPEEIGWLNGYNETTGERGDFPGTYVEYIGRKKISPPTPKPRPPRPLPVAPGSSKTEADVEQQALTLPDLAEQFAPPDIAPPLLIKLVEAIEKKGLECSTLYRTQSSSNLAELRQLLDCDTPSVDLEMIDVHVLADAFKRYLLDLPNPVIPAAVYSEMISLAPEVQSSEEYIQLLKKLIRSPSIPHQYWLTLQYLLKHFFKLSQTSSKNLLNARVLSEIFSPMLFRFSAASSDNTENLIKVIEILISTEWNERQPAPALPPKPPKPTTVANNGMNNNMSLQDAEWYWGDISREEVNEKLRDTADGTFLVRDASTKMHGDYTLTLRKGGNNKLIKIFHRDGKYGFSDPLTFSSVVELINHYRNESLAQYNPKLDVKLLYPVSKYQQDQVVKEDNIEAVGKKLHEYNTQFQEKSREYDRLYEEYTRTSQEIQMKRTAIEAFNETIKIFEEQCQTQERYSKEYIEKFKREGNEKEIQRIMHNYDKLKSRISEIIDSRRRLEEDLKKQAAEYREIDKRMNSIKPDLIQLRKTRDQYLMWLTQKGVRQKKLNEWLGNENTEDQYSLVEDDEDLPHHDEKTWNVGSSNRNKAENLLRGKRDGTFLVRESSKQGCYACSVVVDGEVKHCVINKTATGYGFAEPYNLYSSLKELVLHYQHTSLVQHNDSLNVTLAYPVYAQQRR
T2 sequence (O00329 whole entry): as the sequence (O00329 whole entry) above
T2 sequence (P27986 whole entry partner): as the sequence (P27986 whole entry partner) above
T3 sequence (Q9JHG7 whole entry): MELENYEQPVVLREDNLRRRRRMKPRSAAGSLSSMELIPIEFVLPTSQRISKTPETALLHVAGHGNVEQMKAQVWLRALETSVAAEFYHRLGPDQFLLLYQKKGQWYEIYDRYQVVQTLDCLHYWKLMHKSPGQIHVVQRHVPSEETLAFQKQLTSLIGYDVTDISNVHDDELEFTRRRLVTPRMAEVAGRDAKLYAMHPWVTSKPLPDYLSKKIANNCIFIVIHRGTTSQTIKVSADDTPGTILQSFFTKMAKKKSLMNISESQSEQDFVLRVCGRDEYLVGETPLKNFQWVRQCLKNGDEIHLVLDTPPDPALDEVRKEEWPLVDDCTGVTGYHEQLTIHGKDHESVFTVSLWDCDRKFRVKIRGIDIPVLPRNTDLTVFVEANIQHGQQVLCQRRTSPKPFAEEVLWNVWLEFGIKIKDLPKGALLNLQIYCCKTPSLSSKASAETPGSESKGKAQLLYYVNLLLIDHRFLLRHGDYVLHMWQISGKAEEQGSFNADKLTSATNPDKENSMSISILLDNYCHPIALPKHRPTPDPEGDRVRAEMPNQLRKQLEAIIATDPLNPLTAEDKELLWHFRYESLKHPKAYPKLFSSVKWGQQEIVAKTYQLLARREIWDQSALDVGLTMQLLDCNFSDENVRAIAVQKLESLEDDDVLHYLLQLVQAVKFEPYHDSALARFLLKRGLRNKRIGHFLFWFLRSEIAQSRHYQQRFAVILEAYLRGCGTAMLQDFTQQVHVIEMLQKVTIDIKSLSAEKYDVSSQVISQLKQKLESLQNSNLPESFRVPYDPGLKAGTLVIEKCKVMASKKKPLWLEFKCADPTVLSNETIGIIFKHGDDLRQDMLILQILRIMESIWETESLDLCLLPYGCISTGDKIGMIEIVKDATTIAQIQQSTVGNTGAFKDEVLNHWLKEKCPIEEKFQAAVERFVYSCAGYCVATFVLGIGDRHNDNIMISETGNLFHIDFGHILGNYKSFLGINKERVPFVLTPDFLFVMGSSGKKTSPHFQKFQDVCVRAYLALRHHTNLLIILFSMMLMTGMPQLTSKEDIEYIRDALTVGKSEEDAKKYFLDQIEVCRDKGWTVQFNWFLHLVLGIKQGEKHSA

EC50 [1]: 500 to 2000 nM
IC50 [3]: 2070 nM
EC50 [4]: < 40 nM
IC50 [5]: 38.1 nM
IC50 [6]: 22.3 nM
SMILES: CC[C@H](Nc1ncnc2[nH]cnc12)c1oc2ccccc2c(=O)c1-c1cccc(F)c1 [Compound A1, (S)-2-(1-(9H-purin-6-ylamino)propyl)-3-(3-fluorophenyl)-4H-chromen-4-one]
ED50 [2]: 6.5 mg/kg
